Test results from US20250235410A1, “WATER-SOLUBLE CANNABIDIOL MICROCAPSULES AND PREPARATION METHOD THEREOF” (Northeast Agricultural University, priority 2022, published 2025).

Tests used:
[1] = Influence of temperature on stability (retention rate of CBD); assay type: physicochemical; details: 4-100 °C, sealed, dark, 12 h
Method: (§1) Determination of retention rate of CBD in MRPs-CBD microcapsules: the above method to determine CBD content in MRPs-CBD microcapsules is used to accurately determine the initial CBD content in MRPs-CBD microcapsules and the CBD content retained in microcapsules under different treatment methods, and the retention rate of CBD in microcapsules is calculated according to the following formula:
An appropriate amount of samples are weighed, placed in a sealed and dark environment at 4° C., 25° C., 37° C., 50° C., 80° C. and 100° C. for 12 h and taken out, and the retention rate of CBD is determined.

[2] = Release in simulated gastric juice; assay type: in vitro ADME; details: 1 h in simulated gastric juice
Method: An appropriate amount of samples are weighed and released in simulated gastric juice. Samples are taken according to the time gradient of 0.5, 1.0, 1.5, 2.0, 2.5 and 3.0 h, and the cumulative release rate of CBD is determined.

[3] = Release in simulated intestinal juice; assay type: in vitro ADME; details: 1 h in simulated intestinal juice
Method: An appropriate amount of samples are weighed and released in simulated intestinal juice. Samples are taken according to the time gradient of 0.5, 1.0, 1.5, 2.0, 2.5 and 3.0 h, and the cumulative release rate of CBD is determined.

[4] = DPPH radical scavenging rate; assay type: biochemical; details: P<0.05
Method: (§2) The antioxidant activity of glycosylation product-based water-soluble cannabidiol microcapsules is analyzed through radical scavenging rate. The scavenging ability of 1,1-Diphenyl-2-picrylhydrazyl (DPPH) and, 2′-azino-bis (3-ethylbenzothiazoline-6-sulfonic acid (ABTS^+) radical cation is mainly studied.
Determination of DPPH radical scavenging rate: 1 mL of CBD with different concentrations, methanol solution of microcapsules with different concentrations and 4 mL of 0.1 mmol/L DPPH solution (DPPH dissolved in 95% ethanol) are mixed evenly, and kept in the dark for 30 min at room temperature. Using 95% ethanol as reference solution, the absorbance at 517 nm is read. The absorbance value of the sample mixed with DPPH ethanol solution is recorded as A, the absorbance value of the sample mixed with 95% ethanol solution is Ai, and the absorbance value of the single DPPH ethanol solution is Aj. The calculation formula is as follows: […]

[5] = Influence of incandescent light on stability (retention rate of CBD); assay type: physicochemical; details: 15th day of incandescent light (25 W), 4 °C, sealed
Method: as §1, with “formula: […]” for “formula:”
A proper amount of samples are weighed, sealed, placed under incandescent light (25 W) at 4° C. for 15 d, and taken out on the 1st, 3rd, 6th, 9th, 12th and 15th day respectively, and the retention rate of CBD is determined.

[6] = Influence of oxygen on stability (retention rate of CBD); assay type: physicochemical; details: 15th day, dark, aerobic
Method: as §1, with “formula: […]” for “formula:”
An appropriate amount of samples are weighed, placed at 4° C. and 25° C. for 15 days in the dark and aerobic conditions, and taken out at on 1st, 3rd, 5th, 7th, 9th, 12th and 15th day to determine the retention rate of CBD. See FIG. 8A and FIG. 8B for the test results.

[7] = Influence of environmental pH value on stability (retention rate of CBD); assay type: physicochemical; details: 4 °C, 12 h
Method: as §1, with “formula: […]” for “formula:”
A proper amount of samples are weighed and dissolved in distilled water, and the pH values of the solutions are adjusted as 1, 2, 3, 4, 5, 6, 7, 8, 9, 10, 11 and 12 respectively, and samples are placed in a sealed and dark environment at 4° C. for 12 h, then taken out and its retention rate of CBD is determined.

[8] = ABTS+ radical cation scavenging rate; assay type: biochemical; details: P<0.05
Method: as §2
Determination of ABTS^+ radical scavenging rate: 10 mg of ABTS and 2.9 mg of potassium persulfate are taken, dissolved in 10 mL of 0.01 mol/L sodium phosphate buffer, and stored in the dark at 25° C. for 15 h for later use. 2.5 mL ABTS solution is taken, added with 20 mL of 0.01 mol/L sodium phosphate buffer, and diluted with distilled water so that the absorbance at 734 nm is 0.7, to obtain an ABTS analysis solution. 1 mL of CBD with different concentrations and methanol solutions of microcapsules with different concentrations are taken respectively, added with 2 mL of above ABTS analysis solution to the test tube for reacting for 10 min, and then 95% ethanol is used as reference solution to read the absorbance value at 734 nm. The absorbance value of the sample mixed with ABTS analysis solution is marked as A, the absorbance value of the sample mixed with 95% ethanol solution is Ai, and the absorbance value of the single ABTS analysis solution is Aj. The calculation formula is as follows: […]

In the case of `C=C(C)[C@@H]1CCC(C)=C[C@H]1c1c(O)cc(CCCCC)cc1O` [unencapsulated CBD, Cannabidiol], the “retention rate of CBD, trend with increase of temperature” value [1] is reported as “continuous downward trends”, the “fate of CBD in simulated gastric juice” value [2] is reported as “completely digested and degraded” and the “fate of CBD in simulated intestinal juice” value [3] is reported as “completely digested and degraded”. The “DPPH scavenging rate, change with increase of CBD concentration” value [4] was “increase significantly”, the “retention rate of CBD” value [5] was 24.53±1.56% and the “retention rate of CBD” value ([6]; 4 °C) was 43.87±1.83%. For the same molecule, the “retention rate of CBD” value ([6]; 25 °C) was 38.85±1.76%, the “retention rate of CBD, trend” value ([7]; environmental pH increases from 1 to 6) was “increase significantly” and the “retention rate of CBD, trend” value ([7]; environmental pH increases from 8 to 12) was “decrease significantly”. The “ABTS+ scavenging rate, change with increase of CBD concentration” value [8] was “increase significantly”.
